The values below come from US9181255B2, “Fused heteroaromatic pyrrolidinones as SYK inhibitors” (Takeda Pharmaceutical Company Limited, priority 2009, dated 2015).

The target in the experiment is SYK (Homo sapiens, UniProt P43405). The experiment can be described thus: SYK inhibition assay: SYK-mediated phosphorylation of FAM-labeled substrate (Caliper microfluidic). Format: biochemical. The settings on record: for IC50: read-out: SYK Inhibition (pIC50) (converted).

For the compound `COC[C@H](N)CNc1nc(Nc2cccc(C)c2)c2c(c1C#N)CNC2=O` [Example 78, (R)-6-(2-Amino-3-methoxypropylamino)-3-oxo-4-(m-tolylamino)-2,3-dihydro-1H-pyrrolo[3,4-c]pyridine-7-carbonitrile], the IC50 was 3.98 nM. The same measure, in the same setting: in the case of `N[C@H]1CCCC[C@H]1Nc1nc2c(c(-c3ccn[nH]3)n1)C(=O)NC2` [Example 48, 2-((1R,2S)-2-Aminocyclohexylamino)-4-(1H-pyrazol-5-yl)-6,7-dihydro-5H-pyrrolo[3,4-c]pyrimidin-5-one] it was 794 nM; in that of `Cc1cccc(Nc2nc(N3CCC(N)C3)nc3c2C(=O)NC3)c1` (stereo not shown) [Example 45, 2-(3-Aminopyrrolidin-1-yl)-4-(m-tolylamino)-6,7-dihydro-5H-pyrrolo[3,4-d]pyrimidin-5-one], 794 nM; in that of `N[C@H]1COCC[C@H]1Nc1nc(-c2cnn(C3CC3)c2)c2c(c1F)CNC2=O` [Example 136, 6-((3R,4R)-3-Aminotetrahydro-2H-pyran-4-ylamino)-4-(1-cyclopropyl-1H-pyrazol-4-yl)-7-fluoro-1H-pyrrolo[3,4-c]pyridin-3(2H)-one], 31.6 nM. For the compound `CC(C)C[C@@H](Nc1nc(-c2cnn3ccccc23)c2c(c1F)CNC2=O)C(N)=O` [Example 74, (R)-2-(7-Fluoro-3-oxo-4-(pyrazolo[1,5-a]pyridin-3-yl)-2,3-dihydro-1H-pyrrolo[3,4-c]pyridin-6-ylamino)-4-methylpentanamide], the IC50 is 5.01 nM.

`CC(C)C[C@@H](Nc1nc(-c2ccns2)c2c(c1F)CNC2=O)C(N)=O` [Example 119, (R)-2-(7-Fluoro-4-(isothiazol-5-yl)-3-oxo-2,3-dihydro-1H-pyrrolo[3,4-c]pyridin-6-ylamino)-4-methylpentanamide]: the IC50 was 15.8 nM. Consider `Cc1cccc(Nc2nc(N[C@H]3COCC[C@H]3N)cc3c2C(=O)NC3)c1` [Example 86, 6-((3R,4R)-4-Aminotetrahydro-2H-pyran-3-ylamino)-4-(m-tolylamino)-1H-pyrrolo[3,4-c]pyridin-3(2H)-one], for which the IC50 was 2510 nM. Take `CC(C)C[C@@H](Nc1nc(-c2ccc(C#N)s2)c2c(c1F)CNC2=O)C(N)=O` [Example 116, (R)-2-(4-(5-Cyanothiophen-2-yl)-7-fluoro-3-oxo-2,3-dihydro-1H-pyrrolo[3,4-c]pyridin-6-ylamino)-4-methylpentanamide]: the IC50 was 7.94 nM. As to `Nc1ncc(-c2nc(N[C@@H]3CCCC[C@@H]3N)c(F)c3c2C(=O)NC3)s1` [Example 112, 6-((1R,2S)-2-Aminocyclohexylamino)-4-(2-aminothiazol-5-yl)-7-fluoro-1H-pyrrolo[3,4-c]pyridin-3(2H)-one], the IC50 was 2 nM.

In the case of `COC[C@H](N)CNc1nc(Nc2cccc(C)c2)c2c(c1F)CNC2=O` [Example 79, (R)-6-(2-Amino-3-methoxypropylamino)-7-fluoro-4-(m-tolylamino)-1H-pyrrolo[3,4-c]pyridin-3(2H)-one], the IC50 was 20 nM. As for `N[C@H]1CCCC[C@H]1Nc1nc2c(c(-c3cnn(-c4ccc(F)cc4)c3)n1)C(=O)NC2` [Example 100, 2-((1R,2S)-2-Aminocyclohexylamino)-4-(1-(4-fluorophenyl)-1H-pyrazol-4-yl)-6,7-dihydro-5H-pyrrolo[3,4-d]pyrimidin-5-one], the IC50 was 158 nM. As for `Cc1cccc(Nc2nc(N3CCCCC3CN)nc3c2C(=O)NC3)c1` (stereo not shown) [Example 32, 2-(2-(Aminomethyl)piperidin-1-yl)-4-(m-tolylamino)-6,7-dihydro-5H-pyrrolo[3,4-c]pyrimidin-5-one], the IC50 is 3980 nM. Regarding `N[C@H]1CCCC[C@H]1Nc1nc2c(c(-c3cnn(Cc4ccccc4)c3)n1)C(=O)NC2` [Example 19, 2-((1R,2S)-2-Aminocyclohexylamino)-4-(1-benzyl-1H-pyrazol-4-yl)-6,7-dihydro-5H-pyrrolo[3,4-d]pyrimidin-5-one], the IC50 is 251 nM. As to `CC(C)C[C@@H](Nc1nc(-c2ccoc2)c2c(c1F)CNC2=O)C(N)=O` [Example 114, (R)-2-(7-Fluoro-4-(furan-3-yl)-3-oxo-2,3-dihydro-1H-pyrrolo[3,4-c]pyridin-6-ylamino)-4-methylpentanamide], the IC50 is 251 nM. Take `Cn1cc(-c2nc(N[C@@H]3CCCC[C@@H]3N)cc3c2C(=O)NC3)cn1` [Example 26, 6-((1R,2S)-2-Aminocyclohexylamino)-4-(1-methyl-1H-pyrazol-4-yl)-1H-pyrrolo[3,4-c]pyridin-3(2H)-one]: the IC50 was 31.6 nM. Take `N[C@H]1CCCC[C@H]1Nc1nc(-c2coc3ccccc23)c2c(c1F)CNC2=O` [Example 50, 6-((1R,2S)-2-Aminocyclohexylamino)-4-(benzofuran-3-yl)-7-fluoro-1H-pyrrolo[3,4-c]pyridin-3(2H)-one]: the IC50 is 2.51 nM. Consider `Cc1cccc(Nc2nc(N3CCCC(N)C3)nc3c2C(=O)NC3)c1` (stereo not shown) [Example 12, 2-(3-Aminopiperidin-1-yl)-4-(m-tolylamino)-6,7-dihydro-5H-pyrrolo[3,4-d]pyrimidin-5-one], for which the IC50 is 2000 nM.

As for `N[C@H]1CCCC[C@H]1Nc1nc(-c2csc3ccccc23)c2c(c1F)CNC2=O` [Example 52, 6-((1R,2S)-2-aminocyclohexylamino)-4-(benzo[b]thiophen-3-yl)-7-fluoro-1H-pyrrolo[3,4-c]pyridin-3(2H)-one], the IC50 was 63.1 nM. Take `N[C@H]1CCCC[C@H]1Nc1nc(-c2ccsc2)c2c(c1F)CNC2=O` [Example 106, 6-((1R,2S)-2-Aminocyclohexylamino)-7-fluoro-4-(thiophen-3-yl)-1H-pyrrolo[3,4-c]pyridin-3(2H)-one]: the IC50 was 2.51 nM. Consider `Cc1cn(-c2nc(N[C@@H]3CCCC[C@@H]3N)c(F)c3c2C(=O)NC3)cn1` [Example 131, 6-((1R,2S)-2-Aminocyclohexylamino)-7-fluoro-4-(4-methyl-1H-imidazol-1-yl)-1H-pyrrolo[3,4-c]pyridin-3(2H)-one], for which the IC50 is > 20000 nM.

As for `CC(C)C[C@@H](Nc1cc2c(c(Nc3cccc(S(C)(=O)=O)c3)n1)C(=O)NC2)C(N)=O` [Example 35, (R)-4-Methyl-2-(4-(3-(methylsulfonyl)phenylamino)-3-oxo-2,3-dihydro-1H-pyrrolo[3,4-c]pyridin-6-ylamino)pentanamide], the IC50 is 50.1 nM.

Consider `Cc1cccc(Nc2nc(N[C@@H]3CCCC[C@@H]3O)nc3c2C(=O)NC3)c1` (relative stereo) [Example 11, Cis-2-(2-Hydroxycyclohexylamino)-4-(m-tolylamino)-6,7-dihydro-5H-pyrrolo[3,4-d]pyrimidin-5-one], for which the IC50 was 1260 nM. As for `Cn1cc(-c2nc(-c3cnn(C)c3)c3c(c2F)CNC3=O)cn1` [Example 98, 7-Fluoro-4,6-bis(1-methyl-1H-pyrazol-4-yl)-1H-pyrrolo[3,4-c]pyridin-3(2H)one], the IC50 was 2000 nM. For `Cn1cc(-c2nc(N[C@@H]3CC(F)(F)C[C@@H]3N)c(F)c3c2C(=O)NC3)cn1` (relative stereo) [Example 66, 6-(cis-2-Amino-4,4-difluorocyclopentylamino)-7-fluoro-4-(1-methyl-1H-pyrazol-4-yl)-1H-pyrrolo[3,4-c]pyridin-3(2H)-one], the IC50 was 501 nM. As to `N[C@H]1COCC[C@H]1Nc1nc(-c2cnn(C(F)F)c2)c2c(c1F)CNC2=O` [Example 93, 6-((3R,4R)-3-Aminotetrahydro-2H-pyran-4-ylamino)-4-(1-(difluoromethyl)-1H-pyrazol-4-yl)-7-fluoro-1H-pyrrolo[3,4-c]pyridin-3(2H)-one], the “SYK Inhibition (pIC50)” value (SYK kinase domain (residues 356-635), 5FAM-KKKKEEIYFFFG-NH2 substrate, ATP, RT 60 min, pIC50 = -log(IC50), IC50 molar) is 8.0. `CCn1cc(-c2nc(N[C@@H]3CCCC[C@@H]3N)nc3c2C(=O)NC3)cn1` [Example 18, 2-((1R,2S)-2-Aminocyclohexylamino)-4-(1-ethyl-1H-pyrazol-4-yl)-6,7-dihydro-5H-pyrrolo[3,4-d]pyrimidin-5-one]: the IC50 is 79.4 nM. With `CS(=O)(=O)c1cccc(Nc2nc(N[C@@H]3CCCC[C@@H]3N)cc3c2C(=O)NC3)c1` [Example 33, 6-((1R,2S)-2-Aminocyclohexylamino)-4-(3-(methylsulfonyl)phenylamino)-1H-pyrrolo[3,4-c]pyridin-3(2H)-one], the IC50 is 50.1 nM. With `N[C@H]1CCCC[C@H]1Nc1cc2c(c(-c3cnn(C4CC4)c3)n1)C(=O)NC2` [Example 61], the IC50 is 63.1 nM.

With `CC(C)C[C@@H](Nc1nc(-c2coc3ccccc23)c2c(c1F)CNC2=O)C(N)=O` [Example 73, (R)-2-(4-(Benzofuran-3-yl)-7-fluoro-3-oxo-2,3-dihydro-1H-pyrrolo[3,4-c]pyridin-6-ylamino)-4-methylpentanamide], the IC50 is 7.94 nM. Consider `N[C@H]1CCCC[C@H]1Nc1nc(-c2cnn3ccccc23)c2c(c1F)CNC2=O` [Example 31, 6-((1R,2S)-2-Aminocyclohexylamino)-7-fluoro-4-(pyrazolo[1,5-a]pyridin-3-yl)-1H-pyrrolo[3,4-c]pyridin-3(2H)-one], for which the IC50 was 2.51 nM. Same read-out and setting: the figure for `Cc1cccc(Nc2nc(N[C@@H]3COC[C@@H]3N)cc3c2C(=O)NC3)c1` (relative stereo) [Example 58, 6-(cis-4-Aminotetrahydrofuran-3-ylamino)-4-(m-tolylamino)-1H-pyrrolo[3,4-c]pyridin-3(2H)-one] is 1580 nM; for `COC[C@H](N)CNc1nc(-c2cnn(C)c2)c2c(c1F)CNC2=O` [Example 101, (R)-6-(2-Amino-3-methoxypropylamino)-7-fluoro-4-(1-methyl-1H-pyrazol-4-yl)-1H-pyrrolo[3,4-c]pyridin-3(2H)-one] it is 63.1 nM; for `COCCn1cc(-c2nc(N[C@@H]3CCCC[C@@H]3N)nc3c2C(=O)NC3)cn1` [Example 22, 2-((1R,2S)-2-Aminocyclohexylamino)-4-(1-(2-methoxyethyl)-1H-pyrazol-4-yl)-6,7-dihydro-5H-pyrrolo[3,4-d]pyrimidin-5-one] it is 2000 nM. With `COC[C@H](N)CNc1cc2c(c(-c3cnn(C)c3)n1)C(=O)NC2` [Example 91, (R)-6-(2-Amino-3-methoxypropylamino)-4-(1-methyl-1H-pyrazol-4-yl)-1H-pyrrolo[3,4-c]pyridin-3(2H)-one], the IC50 is 251 nM.
